These results are taken from US5710123A, “Peptide inhibitors of selectin binding” (Centocor, Inc., priority 1995, dated 1998).

Where a SMILES comes first, the peptide text is derived from it. Bridges are numbered along the chain shown (N, C = ends). Where no end group is shown, it is not given here.

For the test, the target named is T1, P-selectin (Homo sapiens, UniProt P16109).
T1 construct: from tissue; host or cells: outdated human platelet packs from a blood bank
T1 sequence (P16109 42-830): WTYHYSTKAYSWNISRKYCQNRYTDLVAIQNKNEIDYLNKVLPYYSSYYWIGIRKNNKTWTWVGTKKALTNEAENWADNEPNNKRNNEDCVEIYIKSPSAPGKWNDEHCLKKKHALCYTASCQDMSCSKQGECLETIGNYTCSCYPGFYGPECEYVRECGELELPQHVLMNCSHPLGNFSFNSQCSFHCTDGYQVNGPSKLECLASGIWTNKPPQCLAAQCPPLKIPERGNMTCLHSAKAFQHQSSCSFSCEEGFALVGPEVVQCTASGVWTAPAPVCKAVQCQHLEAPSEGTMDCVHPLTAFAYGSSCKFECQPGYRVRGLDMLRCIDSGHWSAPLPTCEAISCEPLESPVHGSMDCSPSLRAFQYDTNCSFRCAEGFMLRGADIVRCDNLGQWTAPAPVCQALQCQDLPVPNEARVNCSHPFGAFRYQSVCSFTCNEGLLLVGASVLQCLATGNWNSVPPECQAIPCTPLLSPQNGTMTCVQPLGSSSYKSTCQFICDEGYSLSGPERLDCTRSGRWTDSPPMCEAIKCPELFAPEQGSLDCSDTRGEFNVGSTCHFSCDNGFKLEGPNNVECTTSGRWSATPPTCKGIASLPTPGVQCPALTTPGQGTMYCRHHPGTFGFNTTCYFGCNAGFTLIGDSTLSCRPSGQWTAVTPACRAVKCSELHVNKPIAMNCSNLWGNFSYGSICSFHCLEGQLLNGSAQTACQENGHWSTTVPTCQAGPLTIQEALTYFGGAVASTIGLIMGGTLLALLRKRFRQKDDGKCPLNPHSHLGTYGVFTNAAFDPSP
Nature of the test: Inhibition of binding of human neutrophils to P-selectin (neutrophil adhesion to purified immobilized P-selectin, myeloperoxidase readout). It counts as cell-based. As to conditions: P-selectin purified from human platelets, plated at 5 micrograms/mL, peptides tested 1.0 mM to 0.001 mM. The source says:
Peptides can be screened for their ability to inhibit adhesion to cells, for example, neutrophil adhesion to purified P-selectin immobilized on plastic wells, using the assay described by Geng, et al., Nature 343, 757-760 1990). Human neutrophils are isolated from heparinized […] blood by density gradient centrifugation on Mono-Poly resolving media, Flow Laboratories. Neutrophil suspensions are greater than 98% pure and greater than 95% viable by trypan blue exclusion. For adhesion assays, neutrophils are suspended at a concentration of 2×10^6 cells/mL in Hanks' balanced salt solution containing 1.26 mM Ca^2+ and 0.81 mM Mg^2+ (HBSS, Gibco) with […] human serum albumin (HBSS/HSA). Adhesion assays are conducted in triplicate in 96-well microtiter plates, Corning, incubated at 4° C. overnight with 50 microliters of various protein solutions. P-selectin is isolated from human platelet lysates by immunoaffinity chromatography on antibody S12-Sepharose™ and ion-exchange chromatography on a Mono-Q™ column (FLPC, Pharmacia Fine Chemicals), as follows. Outdated human platelet packs (100 units) obtained from a blood bank and stored at 4° C. are pooled, adjusted to 5 mM EDTA at pH 7.5, centrifuged at 4,000 rpm for 30 minutes in 1 liter bottles, then washed three times with 1 liter of 0.1M NaCl, 20 mM Tris pH 7.5 (TBS), 5 mM EDTA, 5 mM benzamidine. The pellets are then resuspended in a minimum amount of wash buffer and made 1 mM in DIFP, then frozen in 50 mL screwtop tubes at -80° C. The frozen platelets are thawed and resuspended in 50 mL TBS, 5 mM benzamidine, 5 mM EDTA pH 7.5, […]. The suspension is frozen and thawed two times in a dry ice-acetone bath using a 600 mL lyophilizing flask, then homogenized in a glass/teflon mortar and pestle and made 1 mM in DIFP. The NaCl concentration is adjusted to 0.5M with a stock solution of 4M NaCl. After stirring the suspension at 4° C., it is centrifuged in polycarbonate tubes at 33,000 rpm for 60 minutes at 4° C. The supernatant (0.5M NaCl wash) is removed and saved; this supernatant contains the soluble form of P-selectin. Care is taken not to remove the top part of the pellet with the supernatant. The pellets are then homogenized in extraction buffer (TBS, 5 mM benzamidine, 5 mM EDTA, pH 7.5, 100 μM leupeptin, 2% Triton X-100). After centrifugation at 19,500 rpm for 25 minutes at 4° C., the supernatant is removed. The extraction procedure is repeated with the pellet and the supernatant is combined with the first supernatant. The combined extracts, which contain the membrane form of P-selectin, are adjusted to 0.5M NaCl. The soluble fraction (0.5M NaCl wash) and the membrane extract (also adjusted to 0.5M NaCl) are absorbed with separate pools of the monoclonal antibody S12 (directed to P-selectin) previously coupled to Affigel (Biorad) at 5 mg/mL for 2 hours at 4° C. After letting the resins settle, the supernatants are removed. The S12 Affigel containing bound GMP-140 is then loaded into a column and washed overnight at 4° C. with 400 mL of 0.5M NaCl, 20 mM Tris pH 7.5, 0.01% Lubrol PX. Bound P-selectin is eluted from the S12 Affigel with 100 mL of 80% ethylene glycol, 1 mM MES pH 6.0, 0.01% Lubrol PX. Peak fractions with absorbance at 280 nm are pooled. Eluates are dialyzed against TBS with 0.05% Lubrol, then applied to a Mono Q column (FPLC from Pharmacia). The concentrated protein is step eluted with 2M NaCl, 20 mM Tris pH 7.5 (plus 0.05% Lubrol PX for the membrane fraction). Peak fractions are dialyzed into TBS pH 7.5 (plus 0.05% Lubrol PX for the membrane fraction). P-selectin is plated at 5 micrograms/mL and the control proteins: human serum albumin (Alb), platelet glycoprotein IIb/IIIa (IIb), von Willsbrand factor (vWF), fibrinogen (FIB), thrombomodulin (TM), gelatin (GEL) or human serum (HS), are added at 50 micrograms/mL. […]
“SHKKLALCY-NH2 [SEQ ID NO: 18, SHKKLALCY--NH2]” registered a 50% inhibitory concentration (IC50) of 362 µM. With “SKKKLQACY-NH2 [SEQ ID NO: 46, SKKKLQACY--NH2]” the figure was 329 µM.

With “SKRRLALCY-NH2 [SEQ ID NO: 58, SKRRLALCY--NH2]”, the IC50 was 8 µM. With “SRKKLALCY-NH2 [SEQ ID NO: 64, SRKKLALCY--NH2]” the figure was 16 µM; with “SKKKLAPCY-NH2 [SEQ ID NO: 42, SKKKLAPCY--NH2]”, 897 µM. “Ac-SKKKLALVY-NH2 [SEQ ID NO: 39, Ac-SKKKLALVY--NH2]” yielded an IC50 of 164 µM. With “Ac-SKKKLALCY-NH2 [SEQ ID NO: 49, Ac-SKKKLALCY--NH2]” the figure was 9 µM; with “Ac-SRRKLALCY-NH2 [SEQ ID NO: 68, Ac-SRRKLALCY--NH2]”, 27 µM.

“SKKKLALCF-NH2 [SEQ ID NO: 29, SKKKLALCF--NH2]” showed an IC50 of 65 µM. As for `CC(C)C[C@@H]1NC(=O)[C@H](C)NC(=O)[C@H](CC(C)C)NC(=O)[C@H](CCCCN)NC(=O)[C@H](CCCCN)NC(=O)[C@H](CCCCN)NC(=O)[C@H](CO)NC(=O)[C@@H](N)CSSC[C@@H](C(=O)N[C@@H](Cc2ccc(O)cc2)C(N)=O)NC1=O` [SEQ ID NO: 5] (H-CSKKKLALCY-NH2; disulfide 1-9), the figure is 78 µM; as for “SKKKLALIY-NH2 [SEQ ID NO: 35, SKKKLALIY--NH2]”, 43 µM; as for “FKKKLALCY-NH2 [SEQ ID NO: 8, FKKKLALCY--NH2]”, 20 µM. As for “HKKKLALCY-NH2 [SEQ ID NO: 10, HKKKLALCY--NH2]”, the half-inhibitory concentration (IC50) was determined as 55 µM. On to `CC(C)C[C@H](NC(=O)[C@H](C)NC(=O)[C@H](CC(C)C)NC(=O)[C@H](CCCCN)NC(=O)[C@H](CCCCN)NC(=O)[C@H](CCCCN)NC(=O)[C@H](CO)NC(=O)[C@@H](N)CS)C(=O)N[C@@H](CS)C(=O)N[C@@H](Cc1ccc(O)cc1)C(N)=O` [SEQ ID NO: 2, Cystinyl-serinyl-lysyl-lysyl-lysyl-leucyl-alanyl-leucyl-cystinyl-tyrosine-amide] (H-CSKKKLALCY-NH2), for which the 50% inhibitory concentration (IC50) turned out to be 48 µM. As to “SRKRLALCY-NH2 [SEQ ID NO: 66, SRKRLALCY--NH2]”, the 50% inhibitory concentration (IC50) was 3 µM. Compared with the last molecule, the IC50 is about 16-fold lower. With “Ac-SRKKLALCY-NH2 [SEQ ID NO: 63, Ac-SRKKLALCY--NH2]” the figure was 17 µM; with “SKRRLALSY-NH2 [SEQ ID NO: 59, SKRRLALSY--NH2]”, 632 µM; with “Ac-FKKKLALCY-NH2 [SEQ ID NO: 7, Ac-FKKKLALCY--NH2]”, 74 µM. With “Ac-SKKKLALLY-NH2 [SEQ ID NO: 37, Ac-SKKKLALLY--NH2]”, the 50% inhibitory concentration (IC50) was found to be 88 µM. Take “LKKKHALCY-NH2 [SEQ ID NO: 11, LKKKHALCY--NH2]”: the IC50 is 178 µM. As for “PKKKLALCY-NH2 [SEQ ID NO: 16, PKKKLALCY--NH2]”, the figure is 103 µM.

“SKKKLAICY-NH2 [SEQ ID NO: 28, SKKKLAICY--NH2]”: the half-maximal inhibitory concentration (IC50) turned out to be 107 µM. “Ac-SKKKAALCY-NH2 [SEQ ID NO: 23, Ac-SKKKAALCY--NH2]”: the IC50 was determined as 192 µM. Compared with the last molecule, the IC50 is about 1.8-fold higher. With `CC(C)C[C@@H]1NC(=O)[C@H](C)NC(=O)[C@H](Cc2c[nH]cn2)NC(=O)[C@H](CCCCN)NC(=O)[C@H](CCCCN)NC(=O)[C@H](CCCCN)NC(=O)[C@H](CC(C)C)NC(=O)[C@@H](N)CSSC[C@@H](C(=O)N[C@@H](Cc2ccc(O)cc2)C(N)=O)NC1=O` [SEQ ID NO: 4, Cyclo-(cystinyl-leucyl-lysyl-lysyl-lysyl-histidyl-alanyl-leucyl-cystinyl)-tyrosine-amide] (H-CLKKKHALCY-NH2; disulfide 1-9) the figure was 626 µM; with “Ac-SKKKTALCY-NH2 [SEQ ID NO: 47, Ac-SKKKTALCY--NH2]”, 82 µM; with “Ac-SKLKLALCY-NH2 [SEQ ID NO: 51, Ac-SKLKLALCY--NH2]”, 12 µM. With “SKKKLHLCY-NH2 [SEQ ID NO: 44, SKKKLHLCY--NH2]” the figure was 207 µM; with “SKHKLALCY-NH2 [SEQ ID NO: 21, SKHKLALCY--NH2]”, 888 µM; with “Ac-SKRKLALCY-NH2 [SEQ ID NO: 53, Ac-SKRKLALCY--NH2]”, 12 µM. “Ac-SKRRLALCY-NH2 [SEQ ID NO: 57, Ac-SKRRLALCY--NH2]” gave an IC50 of 8 µM. “Ac-SRARLALCY-NH2 [SEQ ID NO: 61, Ac-SRARLALCY--NH2]” registered a half-maximal inhibitory concentration (IC50) of 47 µM. As for “SKKKLALTY-NH2 [SEQ ID NO: 41, SKKKLALTY--NH2]”, the figure is 423 µM; as for “Ac-HKKKLALCY-NH2 [SEQ ID NO: 9, Ac-HKKKLALCY--NH2]”, 11 µM; as for “Ac-SKAKLALCY-NH2 [SEQ ID NO: 19, Ac-SKAKLALCY--NH2]”, 60 µM. With “SRKRLALSY-NH2 [SEQ ID NO: 67, SRKRLALSY--NH2]” the figure was 586 µM; with “SKKKLALVY-NH2 [SEQ ID NO: 40, SKKKLALVY--NH2]”, 233 µM.

Molecule `CC(C)C[C@H](NC(=O)[C@H](C)NC(=O)[C@H](Cc1c[nH]cn1)NC(=O)[C@H](CCCCN)NC(=O)[C@H](CCCCN)NC(=O)[C@H](CCCCN)NC(=O)[C@H](CC(C)C)NC(=O)[C@@H](N)CS)C(=O)N[C@@H](CS)C(=O)N[C@@H](Cc1ccc(O)cc1)C(N)=O` [SEQ ID NO: 1, Cystinyl-leucyl-lysyl-lysyl-lysyl-histidyl-alanyl-leucyl-cystinyl-tyrosine- amide] (H-CLKKKHALCY-NH2) showed a 50% inhibitory concentration (IC50) of 269 µM. The IC50 values of the last two molecules are within 1.5-fold of each other. With “SKKKLALLY-NH2 [SEQ ID NO: 38, SKKKLALLY--NH2]” the figure was 131 µM; with “SKKKLILCY-NH2 [SEQ ID NO: 45, SKKKLILCY--NH2]”, 95 µM.

For “Ac-SKKKLALIY-NH2 [SEQ ID NO: 34, Ac-SKKKLALIY--NH2]”, the IC50 came to 128 µM. For the molecule “SKKKAALCY-NH2 [SEQ ID NO: 24, SKKKAALCY--NH2]”, the half-maximal inhibitory concentration (IC50) stood at 232 µM. With “SKKRLALCY-NH2 [SEQ ID NO: 50, SKKRLALCY--NH2]” the figure was 4 µM. As for “SKKKLALHY-NH2 [SEQ ID NO: 36, SKKKLALHY--NH2]”, the figure is 177 µM. With “Ac-NKKKLALCY-NH2 [SEQ ID NO: 14, Ac-NKKKLALCY--NH2]” the figure was 53 µM.
